What was measured:
[1] = Reaction rate of KI with 1O2 (I3− absorbance at 350 nm) under light and magnetic field; assay type: physicochemical
Protocol: (1) The photosensitizers Rose Bengal (RB) and potassium iodide KI are dissolved in water, with the concentrations of photosensitizer and KI is 10 μmol/L and 10 mmol/L, respectively in the resulting solution. […] The above UV-vis absorption spectra tests are performed in the strength range of the magnetic field from 0 to 850 mT respectively.
(2) The photosensitizer chlorin e6 (Ce6, Chlorin e6) and potassium iodide KI are dissolved in water, with the concentrations of the photosensitizer and KI of 10 μmol/L and 10 mmol/L in the resulting solutions. In a magnetic field with certain strength, the solutions are exposed to a 635 nm LED lamp (light emitting diode) at a power of 5 mW·cm^−2, and tested for absorption spectra every 15 seconds over 5 min, and the absorbance at 350 nm is recorded to obtain absorbance versus time curves. The above UV-vis absorption spectra are obtained at a magnetic field strength range from 0 to 850 mT, respectively.
External magnetic field is supplied by East Transformer (Beijing) EM4 electromagnets. Ultraviolet-visible absorption spectra are tested with Agilent 8453 UV/Visible spectrometer equipped with Agilent 89090A thermostat (±0.1° C.).
Under irradiation conditions, photosensitizer is excited to produce singlet oxygen ^1O2, and KI reacts with ^1O2 to give I2 and target detector, iodine triion I3^−, characterized by absorption bands centered at 300 and 350 nm in UV-vis absorption spectrum. The reaction rate is R, which is proportional to the slope of absorbance-time curve of iodine triion I3^− at 350 nm.
In the present invention, the magnetic field effects (MFEs) is quantified by mfeR, the change rate of the reaction rate R, mfeR=(RB−R0)/R0×100%, where R0 is the reaction rate at a magnetic field strength of 0 mT and RB is the reaction rate at a magnetic field strength of B mT.
(3) The RB/KI solution in experiment (1) of this Example is placed in a magnetic field modulated with square wave (90 s for the first period, a magnetic field strength of 0 mT for the first 45 s and 100 mT for the last 45 s; 60 s for the last three cycles, a magnetic field strength of 0 mT for the first 30 s and 100 mT for the last 30 s). Under 561 nm LED (Light Emitting Diode) irradiation with 5 mW·cm^−2, absorption spectra are tested every 5 seconds over 5 min. and the absorbance at 350 nm is recorded, to obtain an absorbance-time curve, as shown in FIG. 6.

Bax/Bcl-2 = experiment: Western blot of Bax/Bcl-2 in HeLa cells; assay type: cell-based; settings: RB 30 μmol/L treated HeLa; light; 250 mT vs no magnetic field
Protocol: HeLa cells (2×10^4/well) are seeded in 6-well plates and cultured for 24 hours, added with RB solution (final concentration 30 μmol/L) or PBS buffer (final concentration 0.01 mol/L), and after treating 24 hours, cells are washed 3 times with PBS buffer.
The cells are placed under a magnetic field at 0, 250 or 800 mT, simultaneously with light (561 nm, 5 mW·cm^−2) or in the dark. After 24 hours treatment, cells are washed with PBS buffer and collect by centrifugation. Protein is extracted from cells using RIPA lysis buffer (medium lysis strength). Target protein is detected with primary antibody, to identify cleaved Caspase-3 protease, Bax (BCL2-Associated X protein) and Bcl-2 (B lymphocytomatose-2 gene), respectively, with β-Actin antibody as the reference. Images are acquired by Bio-Rad ChemiDoc touch imaging system, and results are shown in FIG. 14, in which, group A is PBS buffer treated HeLa cells (light, no magnetic field); group B is RB treated HeLa cells (light, no magnetic field); group C is RB-treated Hela cells (light, 250 mT magnetic field); group D is RB-treated Hela cells (light, 800 mT magnetic field).
The change rate of protein expression is (AB−A0)/A0×100%, where AB and A0 are protein expression with and without magnetic field, respectively (obtained by ImageJ software analyzing the bands in FIG. 14).

HeLa xenograft tumor = HeLa xenograft tumor growth in BALB/c nude mice with photodynamic treatment and magnetic field; assay type: in vivo; settings: RB 1.0 mg/kg intratumoral, 14 days
Protocol: Twenty-four five-weeks old female BALB/c nude mice are selected, 1×10^6 HeLa cells (in 200 μL 0.01 mol/L PBS buffer) are inoculated subcutaneously into the dorsal right flank of each mouse, and a xenograft tumor model is established (Five-weeks old female BALB/c nude mice are obtained from Beijing Agronomy and housed under standard environmental conditions. All animal procedures are approved by Beijing Agronomy Animal Care and Use Committee). After tumors growing up, 25 μL RB (1.0 mg/kg) or an equal volume of PBS buffer at a concentration of 0.01 mol/L are injected intratumorally.
The treatment conditions for dividing the mice into 8 groups (3 mice each) are as follows: • (1) Injection of PBS buffer-no light-no magnetic field (PBS-dark-0mT); • (2) Injection of PBS buffer-light-no magnetic field (PBS-light-0mT); • (3) Injection of PBS buffer-light-250mT magnetic field (PBS-light-250mT); • (4) Injection of PBS Buffer-Light-800mT magnetic field (PBS-light-800mT); • (5) RB-light-no magnetic field (RB-light-0mT) injection (RB-light-0mT); • (6) Injection of RB-light-100mT magnetic field (RB-light-100mT); • (7) Injection of RB-light-250mT magnetic field (RB-light-250mT); • (8) Inject RB-light-800mT magnetic field (RB-light-800mT).
All groups except group (1) receive light 5 min after injection at wavelength of 400-700 nm and power of 100 mW·cm^−2 and light time of 10 min. The tumor area of mice in groups (3), (4) and (6)-(8) are exposed to static magnetic field by using electromagnet during light exposure.
Test (one): Tumor size is monitored with digital calipers every other day for the following 14 days (peripheral measurements of tumors are performed […]), and tumors are calculated by Volume=Length×Width×[…]. Results for groups (2), (4), (5), (7), (8) are shown in FIG. 16, in which, ** is statistical probability p<0.01; *** is p<0.005, p<0.05 is considered significant. Each group is sacrificed 3 mice on day 14 post-injection, tumor tissues are collected for photographing and weighing, and tumor tissues are removed from groups (2), (3), (4), (5), (7), (8) as shown in FIG. 17; the rate of mass change of the tumor tissue in groups (5), (7), (8) is shown in FIG. 18, and the rate of mass change is (ωB−ω0)/ω0×100%, where ωB is the tumor mass under magnetic field conditions and ω0 is the tumor mass in group (5).

O=C1OC2(c3cc(I)c(O)c(I)c3Oc3c2cc(I)c(O)c3I)c2c(Cl)c(Cl)c(Cl)c(Cl)c21 [RB, Rose Bengal]
mfeR (change rate of reaction rate R of KI with 1O2) ([1]; RB 10 μmol/L, KI 10 mmol/L, 561 nm 5 mW·cm−2, maximum at MF=80-135 mT): 46% | mfeR (change rate of reaction rate R of KI with 1O2) ([1]; RB 10 μmol/L, KI 10 mmol/L, 561 nm 5 mW·cm−2, minimum at MF=14 mT): 33% | increase of R value on average compared to 0 mT ([1]; RB/KI, square-wave modulated field, 100 mT vs 0 mT, FIG. 7): about 45% | mfeR (change rate of reaction rate R of KI with 1O2) ([1]; RB, MF from 34 to 355 mT, FIG. 5): > 0% | mfeR (change rate of reaction rate R of KI with 1O2) ([1]; RB, MF from 50 to 220 mT, FIG. 5): > 20% | change rate of Bax/Bcl-2 expression (%) (Bax/Bcl-2): 10.6 ± 0.5% | tumor growth (volume and mass) (HeLa xenograft tumor; group (5) RB-light-0mT, 400-700 nm 100 mW·cm−2 10 min): inhibition of tumor growth | magnetic field effect on tumor growth (HeLa xenograft tumor; group (6) RB-light-100mT): no significant effect on tumor growth | tumor growth (volume and mass) (HeLa xenograft tumor; group (7) RB-light-250mT): further inhibition of tumor growth | magnetic field effect on tumor growth (HeLa xenograft tumor; group (8) RB-light-800mT): no significant effect on tumor growth

Reference: US20250041624A1, “METHOD FOR ENHANCING ACTIVITY OF PHOTOSENSITIZER BY MAGNETIC FIELD” (PEKING UNIVERSITY, priority 2021, published 2025)
